According to patent US20260250320A1, “LIPIDATED PEPTIDE INHIBITORS OF INTERLEUKIN-23 RECEPTOR” (Janssen Pharmaceutica NV, priority 2023, published 2026):
*1 amine or outer side, *2 acyl side, *3 side chain or, on linkers, in order; H or OH if unused. Where a SMILES comes first, the peptide text is derived from it. Bridges are numbered along the chain shown (N, C = ends). Roman numbers before positions name the chains, in order. Side-chain parts run from the residue outwards. [ ]: non-standard residue; d: D form. The star is where a group is joined. X25 = C[N+](C)(C)C[C@@H](CC(=O)O)NC(=O)CCC(=O)CCCCC[C@H](N[*:1])C(=O)[*:2]; X19 = CC(C)(S[*:2])[C@H](N[*:3])C(=O)C[C@@H](Cc1ccc(OCCN)cc1)C(=O)[*:1]; PEG12 = NCCOCCOCCOCCOCCOCCOCCOCCOCCOCCOCCOCCOCCC(=O)O; CH2CH2OCH2CH2OCH2CH2NMe3+ = C[N+](C)(C)CCOCCOCC*; Trp(7-Me) = Cc1cccc2c(C[C@H](N)C(=O)O)c[nH]c12; C20 diacid = O=C(O)CCCCCCCCCCCCCCCCCCC(=O)*; C18 diacid = O=C(O)CCCCCCCCCCCCCCCCC(=O)*; γGlu = O=C(O)[C@H](CCC(=O)[*:2])N[*:1]; 2Nal = N[C@@H](Cc1ccc2ccccc2c1)C(=O)O; AEF = NCCOc1ccc(C[C@H](N)C(=O)O)cc1; 3Pal = N[C@@H](Cc1cccnc1)C(=O)O; Lys(Me) = CNCCCC[C@H](N)C(=O)O; Pen = CC(C)(S)[C@H](N)C(=O)O; Thp = NC1(C(=O)O)CCOCC1; AEEA = NCCOCCOCC(=O)O; Sar = CNCC(=O)O

Key:
[1] = test system: IL-23-stimulated phosphorylated STAT3 in peripheral blood mononuclear cells (PBMCs); experiment: PBMC pSTAT3 Assay; format: cell-based; settings: PBMCs from healthy donors; 30 min preincubation with peptide; IL-23 5 ng/mL for 30 min; phospho-STAT3 by MSD
Procedure: Cryopreserved peripheral blood mononuclear cells (PBMCs) from healthy donors were thawed and washed twice in ImmunoCult-XF T cell expansion medium (XF-TCEM) supplemented with CTL anti-aggregate wash. The cells were counted, resuspended at 2-6×10^5 cells per mL XF-TCEM supplemented with penicillin/streptomycin and 100 ng/mL […] (BioLegend, 579404), and cultured in tissue culture flasks coated with anti-CD3 (eBioscience, 16-0037-85 or BD Pharmingen, 555329) at 37° C. in 5% CO2. On day 4 of culture, PBMCs were collected, washed twice in RPMI-1640 supplemented with 0.1% BSA (RPMI-BSA), and incubated in RPMI-BSA in upright tissue culture flasks for ~4 hours at 37° C. in 5% CO2. Following this 'starvation,' a total of 6×10^4 cells in 30 μL RPMI-BSA was transferred into each well of a 384-well plate pre-spotted with peptide or DMSO. The cells were incubated for 30 minutes prior to the addition of […] at a final concentration of 5 ng/mL. The cells were stimulated with cytokine for 30 minutes at 37° C. in 5% CO2, transferred onto ice for 10 minutes, and lysed. Cell lysates were stored at -80° C. until phosphorylated STAT3 was measured using the phospho-STAT panel kit (Meso Scale Discovery, […]). Results are provided below. • A: IC50<0.5 nM; • B: 0.5 nM≤IC50<5 nM; • C: 5 nM≤IC50; • ND: Not determined

IL-23R = target: T1, IL-23R (Homo sapiens, UniProt Q5VWK5); experiment: IL23R Reporter Assay; format: cell-based; settings: HEK293 cells containing IL-23R, IL-12Rβ1 and STAT-inducible firefly luciferase reporter; 10 ng/mL IL-23 (EC90); 5 h
T1 construct: HEK293 cells containing IL-23R, IL-12Rβ1 and a firefly luciferase reporter gene driven by a STAT-inducible promoter (Promega); host or cells: HEK293
T1 sequence (Q5VWK5 24-629): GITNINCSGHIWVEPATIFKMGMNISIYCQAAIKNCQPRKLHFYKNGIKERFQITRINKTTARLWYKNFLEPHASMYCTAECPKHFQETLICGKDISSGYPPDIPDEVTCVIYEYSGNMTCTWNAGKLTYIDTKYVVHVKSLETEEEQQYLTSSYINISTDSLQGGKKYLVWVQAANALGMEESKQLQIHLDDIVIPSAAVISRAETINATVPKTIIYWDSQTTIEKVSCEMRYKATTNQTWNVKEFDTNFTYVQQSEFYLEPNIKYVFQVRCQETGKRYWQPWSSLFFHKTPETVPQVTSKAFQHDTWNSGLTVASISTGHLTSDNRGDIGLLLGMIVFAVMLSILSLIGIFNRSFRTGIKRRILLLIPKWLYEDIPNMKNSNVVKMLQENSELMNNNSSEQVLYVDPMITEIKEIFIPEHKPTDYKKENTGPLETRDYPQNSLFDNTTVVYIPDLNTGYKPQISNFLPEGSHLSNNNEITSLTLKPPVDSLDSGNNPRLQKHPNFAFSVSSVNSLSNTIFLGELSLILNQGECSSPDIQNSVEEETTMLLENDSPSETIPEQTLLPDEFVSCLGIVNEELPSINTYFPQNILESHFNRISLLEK
Outline: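 IC50 values were fitted with a 4-parameter Hill equation to luciferase signal, scaled between IL-23-only wells (0% inhibition) and 30 μM reference inhibitor (100%). The readout was a STAT-inducible reporter in IL-23R/IL-12Rβ1 HEK293 cells, stimulated with added 10 ng/mL IL-23 (EC90) for 5 h at 37° C and developed with BioGlo.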

## CC(=O)N(C)CCCC[C@@H]1NC(=O)[C@H](Cc2c[nH]c3c(C)cccc23)NC(=O)[C@H]([C@@H](C)O)NC(=O)[C@H](CC(=O)N(C)C)NC(=O)[C@@H](NC(=O)COCCOCCNC(=O)COCCOCCNC(=O)CC[C@H](NC(=O)CCCCCCCCCCCCCCCCCCC(=O)O)C(=O)O)C(C)(C)SSC(C)(C)[C@@H](C(=O)N[C@@H](Cc2ccc(OCCOCCOCC[N+](C)(C)C)cc2)C(=O)N[C@@H](Cc2ccc3ccccc3c2)C(=O)NC2(C(=O)N[C@@H](CCCCN(C)C(C)=O)C(=O)N[C@@H](CC(N)=O)C(=O)N[C@@H](Cc3cccnc3)C(=O)N(C)CC(=O)N(C)C)CCOCC2)NC1=O [compound 110, HOC20gEPEG2PEG2CO-Pen(3)-N(N(Me)2)-T-7MeW-K(NMeAc)-Pen(3)-APEG3F-2Nal-THP-K(NMeAc)-N-3Pya-Sar-CON(Me)2] ({C20 diacid-γGlu-AEEA-AEEA}-[Pen]D(NMe2)T[Trp(7-Me)][Lys(Me)](Ac)[Pen]Y(CH2CH2OCH2CH2OCH2CH2NMe3+)[2Nal][Thp][Lys(Me)](Ac)N[3Pal][Sar]-NMe2; disulfide 1-6)
[1]
  IC50: < 0.5 nM
IL-23R
  IC50: 50 to 500 nM

## CC(=O)NCCCC[C@@H]1NC(=O)[C@H](Cc2c[nH]c3c(C)cccc23)NC(=O)[C@H]([C@@H](C)O)NC(=O)[C@H](CCCCCC(=O)CCC(=O)N[C@H](CC(=O)O)C[N+](C)(C)C)NC(=O)[C@@H](NC(=O)[C@@H](CCCNC(=N)N)NC(C)=O)C(C)(C)SSC(C)(C)[C@@H](C(=O)C[C@@H](Cc2ccc(OCCN)cc2)C(=O)N[C@@H](Cc2ccc3ccccc3c2)C(=O)NC2(C(=O)N[C@@H](CCCCNC(=O)COCCOCCNC(=O)COCCOCCNC(=O)CC[C@H](NC(=O)CCCCCCCCCCCCCCCCC(=O)O)C(=O)O)C(=O)N[C@@H](CC(N)=O)C(=O)N[C@@H](Cc3cccnc3)C(=O)N(C)CC(N)=O)CCOCC2)NC1=O [compound 37, MeCO-r-Pen(3)-K(d)-T-7MeW-K(Ac)-Pen(3)-AEF-2Nal-THP-K(PEG2PEG2gEC18OH)-N-3Pya-Sar-CONH2] (I: [2Nal][Thp]K([AEEA-AEEA-γGlu-C18 diacid])N[3Pal][Sar]-NH2 / II: Ac-[dR][Pen][X25]T[Trp(7-Me)]K(Ac); linker I:N-II:2-II:C via X19)
[1]
  IC50: < 0.5 nM
IL-23R
  IC50: < 50 nM

## CC(=O)NCCCC[C@@H]1NC(=O)[C@H](Cc2c[nH]c3c(C)cccc23)NC(=O)[C@H]([C@@H](C)O)NC(=O)[C@H](CC(N)=O)NC(=O)[C@@H](NC(=O)[C@@H](CCCNC(=N)N)NC(C)=O)C(C)(C)SSC(C)(C)[C@@H](C(=O)N[C@@H](Cc2ccc(OCCN)cc2)C(=O)N[C@@H](Cc2ccc3ccccc3c2)C(=O)NC2(C(=O)N[C@@H](CCC(=O)O)C(=O)N[C@@H](CC(N)=O)C(=O)N[C@@H](Cc3cccnc3)C(=O)N(C)CC(=O)N[C@@H](CCCCNC(=O)CCOCCOCCOCCOCCOCCOCCOCCOCCOCCOCCOCCOCCNC(=O)CC[C@H](NC(=O)CCCCCCCCCCCCCCCCCCC(=O)O)C(=O)O)C(N)=O)CCOCC2)NC1=O [compound 134, MeCO-r-Pen(3)-N-T-7MeW-K(Ac)-Pen(3)-AEF-2Nal-THP-E-N-3Pya-Sar-K(PEG12gEC20OH)-CONH2] (Ac-[dR][Pen]NT[Trp(7-Me)]K(Ac)[Pen][AEF][2Nal][Thp]EN[3Pal][Sar]K([PEG12-γGlu-C20 diacid])-NH2; disulfide 2-7)
[1]
  IC50: < 0.5 nM
IL-23R
  IC50: < 50 nM
